For series [1], the system named is intracelluar cAMP level in Neuro 2A. In words: Transient increase in the intracellular cAMP level in mouse neuroblastoma cell line Neuro 2A. In kind it is cell-based. (Changes in cAMP serve as a functional read-out for many G protein-coupled receptors.)
In the next series the test system is Neuro 2A cells. In words: Activity of neuritogenesis (bipolar outgrowth of neurites) in Neuro 2A cells, minimum effective dose. In kind it is cell-based, mouse. Conditions: mouse neuroblastoma cell line Neuro 2A. As for the experimental part:
Morphological changes of Neuro 2A cells are observed according to the method of Baglioni et al. [J. Biol. Chem., 266: 18620 (1991)].
Neuro 2A cells were plated at a density of 1×10^4 cells/cm^2 in a 24-hole plate, and cultured in MEM-H with 10% FBS.

The conditions of series [2]: cited from earlier work.

Turning to `CC(=O)N[C@@H](CSC(=O)[C@]1([C@@H](O)C(C)C)NC(=O)[C@H](C)[C@@H]1O)C(=O)O` [lactacystin], the “intracelluar cAMP level” value in series [1] was “cause a transient increase in the intracelluar cAMP level”. The neuritogenesis result in the series on Neuro 2A cells is listed as “induce neuritogenesis”. Also, the cytotoxicity result in series [2] (known compound) was “highly cytotoxic”. Also, the neuritogenesis activity result in series [2] (known from literature) is given as “having neuritogenesis activity”.

The values above are taken from patent US5869675A, “Lactacystin derivatives” (The Kitasato Institute, priority 1994, dated 1999).
